Reference: ChEMBL document CHEMBL4507284, “Data for DCP probe BI-1230” (2021)

Legend:
[1] = target: Beta-3 adrenergic receptor (Homo sapiens, UniProt P13945); assay: GPCRScan assay: inhibition of Beta3; set-up: radioligand conc. used [nm] 0.2 – 0.5, parental cells HEK Flp-In
[2] = target: Caspase-2 (Homo sapiens) (UniProt P42575); assay: Caspase-2 (h) Eurofins-Cerep enzyme and uptake assay; details: Compound concentration 10.0 uM
[3] = target: SNF-related serine/threonine-protein kinase (Homo sapiens) (UniProt Q9NRH2); details: Compound concentration 1000.0 nM
Chain of SNF-related serine/threonine-protein kinase (Homo sapiens) (Q9NRH2 whole entry): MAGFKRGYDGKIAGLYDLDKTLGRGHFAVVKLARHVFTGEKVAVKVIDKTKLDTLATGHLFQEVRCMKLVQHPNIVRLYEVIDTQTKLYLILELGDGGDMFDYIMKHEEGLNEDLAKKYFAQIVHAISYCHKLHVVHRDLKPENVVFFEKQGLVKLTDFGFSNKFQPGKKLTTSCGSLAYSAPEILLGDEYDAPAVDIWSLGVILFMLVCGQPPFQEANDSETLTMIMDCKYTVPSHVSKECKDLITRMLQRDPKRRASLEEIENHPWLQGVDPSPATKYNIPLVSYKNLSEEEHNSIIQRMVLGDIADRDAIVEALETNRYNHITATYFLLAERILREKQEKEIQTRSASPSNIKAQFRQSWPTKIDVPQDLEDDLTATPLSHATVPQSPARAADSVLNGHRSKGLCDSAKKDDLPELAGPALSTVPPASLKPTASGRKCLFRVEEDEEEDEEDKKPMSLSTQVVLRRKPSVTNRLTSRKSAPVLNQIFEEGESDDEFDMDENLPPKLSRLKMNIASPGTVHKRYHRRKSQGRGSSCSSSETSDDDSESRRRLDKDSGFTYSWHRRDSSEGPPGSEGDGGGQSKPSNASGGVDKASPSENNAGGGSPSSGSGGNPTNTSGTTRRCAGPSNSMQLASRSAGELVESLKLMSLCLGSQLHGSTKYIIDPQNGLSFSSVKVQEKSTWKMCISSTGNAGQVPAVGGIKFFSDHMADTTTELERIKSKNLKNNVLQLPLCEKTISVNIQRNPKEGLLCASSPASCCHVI

[4] = target: Angiotensin-converting enzyme (Homo sapiens) (UniProt P12821); assay: ACE (h) Eurofins-Cerep enzyme and uptake assay; details: Compound concentration 10.0 uM
[5] = target: Prothrombin (Homo sapiens) (UniProt P00734); assay: Thrombin(h) Eurofins-Cerep enzyme and uptake assay; details: Compound concentration 10.0 uM
[6] = target: Caspase-1 (Homo sapiens) (UniProt P29466); assay: Caspase-1 (h) Eurofins-Cerep enzyme and uptake assay; details: Compound concentration 10.0 uM
Chain of Caspase-1 (Homo sapiens) (P29466 120-297 limits assumed): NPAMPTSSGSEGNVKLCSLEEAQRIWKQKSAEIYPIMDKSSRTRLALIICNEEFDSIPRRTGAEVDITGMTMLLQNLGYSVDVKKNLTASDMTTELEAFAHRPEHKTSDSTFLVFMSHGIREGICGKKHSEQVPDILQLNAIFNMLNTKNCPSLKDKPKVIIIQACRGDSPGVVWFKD
Chain of Caspase-1 (Homo sapiens) (P29466 317-404 limits assumed): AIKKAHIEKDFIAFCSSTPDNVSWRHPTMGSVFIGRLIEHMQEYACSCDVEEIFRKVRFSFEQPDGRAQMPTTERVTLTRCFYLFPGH

[7] = target: Neutrophil elastase (Homo sapiens) (UniProt P08246); assay: Elastase (h) Eurofins-Cerep enzyme and uptake assay; details: Compound concentration 10.0 uM
Chain of Neutrophil elastase (Homo sapiens) (P08246 whole entry): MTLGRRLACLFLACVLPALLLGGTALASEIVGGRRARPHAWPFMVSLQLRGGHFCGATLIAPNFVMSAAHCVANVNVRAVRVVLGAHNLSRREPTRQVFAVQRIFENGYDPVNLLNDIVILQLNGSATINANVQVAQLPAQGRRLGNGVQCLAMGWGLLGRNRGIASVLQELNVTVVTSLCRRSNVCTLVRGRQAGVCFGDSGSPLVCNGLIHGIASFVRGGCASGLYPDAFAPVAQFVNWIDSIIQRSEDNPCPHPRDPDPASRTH

[8] = target: D(2) dopamine receptor (Homo sapiens) (UniProt P14416); details: Compound concentration 10.0 uM
Chain of D(2) dopamine receptor (Homo sapiens) (P14416 whole entry): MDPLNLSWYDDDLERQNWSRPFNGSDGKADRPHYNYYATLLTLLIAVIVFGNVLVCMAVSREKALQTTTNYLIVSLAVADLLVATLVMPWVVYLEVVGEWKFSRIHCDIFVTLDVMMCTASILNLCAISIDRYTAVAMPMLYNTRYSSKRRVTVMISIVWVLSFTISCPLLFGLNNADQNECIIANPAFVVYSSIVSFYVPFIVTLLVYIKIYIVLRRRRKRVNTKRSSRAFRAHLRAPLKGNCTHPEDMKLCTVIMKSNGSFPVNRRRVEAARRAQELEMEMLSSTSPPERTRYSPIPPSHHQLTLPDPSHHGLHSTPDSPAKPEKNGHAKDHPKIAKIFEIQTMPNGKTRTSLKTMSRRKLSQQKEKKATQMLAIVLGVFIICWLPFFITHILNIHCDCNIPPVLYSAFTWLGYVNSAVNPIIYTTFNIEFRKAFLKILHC

[9] = target: Phosphatidylinositol 5-phosphate 4-kinase type-2 gamma (Homo sapiens) (UniProt Q8TBX8); details: Compound concentration 1000.0 nM
Chain of Phosphatidylinositol 5-phosphate 4-kinase type-2 gamma (Homo sapiens) (Q8TBX8 whole entry): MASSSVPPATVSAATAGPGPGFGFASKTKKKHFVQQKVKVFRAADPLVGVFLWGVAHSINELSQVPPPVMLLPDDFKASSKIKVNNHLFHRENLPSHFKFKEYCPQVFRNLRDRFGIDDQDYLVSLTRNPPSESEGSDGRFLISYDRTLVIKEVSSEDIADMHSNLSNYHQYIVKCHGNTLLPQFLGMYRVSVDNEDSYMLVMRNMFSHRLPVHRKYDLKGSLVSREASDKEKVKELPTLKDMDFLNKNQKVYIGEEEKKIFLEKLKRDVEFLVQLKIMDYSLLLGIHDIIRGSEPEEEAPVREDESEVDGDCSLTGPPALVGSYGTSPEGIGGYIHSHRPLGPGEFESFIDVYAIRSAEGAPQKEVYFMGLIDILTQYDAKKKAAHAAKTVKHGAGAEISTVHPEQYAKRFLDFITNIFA

[10] = target: Collagenase 3 (Homo sapiens) (UniProt P45452); assay: MMP-13 (h) Eurofins-Cerep enzyme and uptake assay; details: Compound concentration 10.0 uM
[11] = target: Matrix metalloproteinase-9 (Homo sapiens) (UniProt P14780); assay: MMP-9 (h) Eurofins-Cerep enzyme and uptake assay; details: Compound concentration 10.0 uM
[12] = target: Cathepsin E (Homo sapiens) (UniProt P14091); assay: Cathepsin E Eurofins-Cerep enzyme and uptake assay; details: Mus musculus; Compound concentration 10.0 uM
[13] = target: Pro-cathepsin H (Homo sapiens) (UniProt P09668); assay: Cathepsin H (h) Eurofins-Cerep enzyme and uptake assay; details: Compound concentration 10.0 uM
[14] = target: 72 kDa type IV collagenase (Homo sapiens) (UniProt P08253); assay: MMP-2 (h) Eurofins-Cerep enzyme and uptake assay; details: Compound concentration 10.0 uM
[15] = target: Stromelysin-1 (Homo sapiens) (UniProt P08254); assay: MMP-3 (h) Eurofins-Cerep enzyme and uptake assay; details: Compound concentration 10.0 uM
Chain of Stromelysin-1 (Homo sapiens) (P08254 100-477 limits assumed): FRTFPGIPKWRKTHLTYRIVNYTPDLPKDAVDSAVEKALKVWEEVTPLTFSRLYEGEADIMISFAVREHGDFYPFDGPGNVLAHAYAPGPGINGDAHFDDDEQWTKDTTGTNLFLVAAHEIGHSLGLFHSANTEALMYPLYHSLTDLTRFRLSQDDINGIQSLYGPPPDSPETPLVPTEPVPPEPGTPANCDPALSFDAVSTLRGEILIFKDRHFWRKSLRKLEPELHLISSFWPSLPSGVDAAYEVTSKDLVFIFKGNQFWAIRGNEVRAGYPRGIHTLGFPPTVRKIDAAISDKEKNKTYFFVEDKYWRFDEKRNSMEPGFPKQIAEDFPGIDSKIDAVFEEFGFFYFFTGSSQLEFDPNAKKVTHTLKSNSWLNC

[16] = target: Trypsin (Homo sapiens) (UniProt P07477+P07478+P35030); assay: Trypsin (h) Eurofins-Cerep enzyme and uptake assay; format: protein assay; details: Compound concentration 10.0 uM
[17] = target: Cathepsin D (Homo sapiens) (UniProt P07339); assay: Cathepsin D (h) Eurofins-Cerep enzyme and uptake assay; details: Compound concentration 10.0 uM
[18] = target: Beta-1 adrenergic receptor (Homo sapiens) (UniProt P08588); details: Compound concentration 10.0 uM
[19] = target: Cathepsin B (Homo sapiens) (UniProt P07858); assay: Cathepsin B (h) Eurofins-Cerep enzyme and uptake assay; details: Compound concentration 10.0 uM
[20] = target: 5-hydroxytryptamine receptor 1A (Homo sapiens) (UniProt P08908); details: Compound concentration 10.0 uM
[21] = target: Disintegrin and metalloproteinase domain-containing protein 17 (Homo sapiens) (UniProt P78536); assay: TACE (h) Eurofins-Cerep enzyme and uptake assay; details: Compound concentration 10.0 uM
[22] = target: Endothelin-converting enzyme 1 (Homo sapiens) (UniProt P42892); assay: ECE-1 (h) Eurofins-Cerep enzyme and uptake assay; details: Compound concentration 10.0 uM
[23] = target: Alpha-2C adrenergic receptor (Homo sapiens, UniProt P18825); assay: GPCRScan assay: inhibition of Alpha2C; set-up: radioligand conc. used [nm] 0.5 – 1.0, parental cells stable MDCK
Chain of Alpha-2C adrenergic receptor (P18825 whole entry): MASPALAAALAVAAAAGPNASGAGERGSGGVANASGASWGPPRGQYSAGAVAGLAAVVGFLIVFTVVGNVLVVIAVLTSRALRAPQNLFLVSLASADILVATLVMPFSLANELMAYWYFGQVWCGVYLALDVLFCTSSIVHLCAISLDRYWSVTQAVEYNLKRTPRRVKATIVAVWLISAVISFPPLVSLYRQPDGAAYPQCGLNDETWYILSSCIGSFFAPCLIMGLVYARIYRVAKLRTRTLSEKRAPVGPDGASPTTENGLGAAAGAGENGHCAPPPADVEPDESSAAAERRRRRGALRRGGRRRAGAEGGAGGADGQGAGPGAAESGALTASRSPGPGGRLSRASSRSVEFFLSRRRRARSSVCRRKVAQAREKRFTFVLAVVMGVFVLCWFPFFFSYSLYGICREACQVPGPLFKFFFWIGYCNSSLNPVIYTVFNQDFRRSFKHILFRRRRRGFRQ

[24] = target: Angiotensin-converting enzyme 2 (Homo sapiens) (UniProt Q9BYF1); assay: ACE-2 (h) Eurofins-Cerep enzyme and uptake assay; details: Compound concentration 10.0 uM
[25] = target: Macrophage metalloelastase (Homo sapiens) (UniProt P39900); assay: MMP-12 (h) Eurofins-Cerep enzyme and uptake assay; details: Compound concentration 10.0 uM
[26] = target: Neutrophil collagenase (Homo sapiens) (UniProt P22894); assay: MMP-8 (h) Eurofins-Cerep enzyme and uptake assay; details: Compound concentration 10.0 uM
Chain of Neutrophil collagenase (Homo sapiens) (P22894 101-467 limits assumed): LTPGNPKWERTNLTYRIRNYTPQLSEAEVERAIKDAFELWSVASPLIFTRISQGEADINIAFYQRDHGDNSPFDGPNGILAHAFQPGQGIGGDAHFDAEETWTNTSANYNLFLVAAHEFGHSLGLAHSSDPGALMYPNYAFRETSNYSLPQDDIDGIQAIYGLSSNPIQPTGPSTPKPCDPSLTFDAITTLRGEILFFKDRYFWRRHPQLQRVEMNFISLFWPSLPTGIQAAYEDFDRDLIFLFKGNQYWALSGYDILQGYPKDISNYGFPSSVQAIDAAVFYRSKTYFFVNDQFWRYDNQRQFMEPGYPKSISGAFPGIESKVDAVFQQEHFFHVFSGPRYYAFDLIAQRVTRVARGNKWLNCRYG

[27] = target: Alpha-2B adrenergic receptor (Homo sapiens, UniProt P18089); assay: GPCRScan assay: inhibition of Alpha2B; set-up: radioligand conc. used [nm] 1.5 – 2.0, parental cells HEKT
[28] = target: Dipeptidyl peptidase 4 (Homo sapiens) (UniProt P27487); assay: Dipeptidyl peptidase IV (h) (DPP-IV) Eurofins-Cerep enzyme and uptake assay; details: Compound concentration 10.0 uM
[29] = target: Chymase (Homo sapiens) (UniProt P23946); assay: Chymase (h) Eurofins-Cerep enzyme and uptake assay; details: Compound concentration 10.0 uM
[30] = target: Proteinase-activated receptor 1 (Homo sapiens) (UniProt P25116); assay: PAR1 (h) Eurofins-Cerep Cellular and Nuclear Receptor Functional Assays; details: Compound concentration 10.0 uM
Chain of Proteinase-activated receptor 1 (Homo sapiens) (P25116 whole entry): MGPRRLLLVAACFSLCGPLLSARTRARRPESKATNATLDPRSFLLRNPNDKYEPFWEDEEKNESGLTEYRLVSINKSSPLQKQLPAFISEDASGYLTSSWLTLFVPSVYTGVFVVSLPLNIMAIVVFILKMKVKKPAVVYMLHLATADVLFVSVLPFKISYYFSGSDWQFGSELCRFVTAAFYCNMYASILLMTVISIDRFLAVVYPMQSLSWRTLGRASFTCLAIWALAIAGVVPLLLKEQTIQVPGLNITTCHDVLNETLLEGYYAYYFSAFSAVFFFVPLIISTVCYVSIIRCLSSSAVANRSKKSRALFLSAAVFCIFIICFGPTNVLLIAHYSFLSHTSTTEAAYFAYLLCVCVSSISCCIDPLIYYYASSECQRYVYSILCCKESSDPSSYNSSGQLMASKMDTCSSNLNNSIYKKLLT

[31] = target: Cathepsin G (Homo sapiens) (UniProt P08311); assay: Cathepsin G (h) Eurofins-Cerep enzyme and uptake assay; details: Compound concentration 10.0 uM
[32] = target: Caspase-10 (Homo sapiens) (UniProt Q92851); assay: Caspase-10 (h) Eurofins-Cerep enzyme and uptake assay; details: Compound concentration 10.0 uM
[33] = target: Muscarinic acetylcholine receptor M5 (Homo sapiens) (UniProt P08912); details: Compound concentration 10.0 uM
[34] = target: Caspase-8 (Homo sapiens) (UniProt Q14790); assay: Caspase-8 (h) Eurofins-Cerep enzyme and uptake assay; details: Compound concentration 10.0 uM
[35] = target: Procathepsin L (Homo sapiens) (UniProt P07711); assay: Cathepsin L (h) Eurofins-Cerep enzyme and uptake assay; details: Compound concentration 10.0 uM
[36] = target: Matrix metalloproteinase-14 (Homo sapiens) (UniProt P50281); assay: MT1-MMP (h) (MMP-14) Eurofins-Cerep enzyme and uptake assay; details: Compound concentration 10.0 uM
[37] = target: Caspase-7 (Homo sapiens) (UniProt P55210); assay: Caspase-7 (h) Eurofins-Cerep enzyme and uptake assay; details: Compound concentration 10.0 uM
Chain of Caspase-7 (Homo sapiens) (P55210 24-198 limits assumed): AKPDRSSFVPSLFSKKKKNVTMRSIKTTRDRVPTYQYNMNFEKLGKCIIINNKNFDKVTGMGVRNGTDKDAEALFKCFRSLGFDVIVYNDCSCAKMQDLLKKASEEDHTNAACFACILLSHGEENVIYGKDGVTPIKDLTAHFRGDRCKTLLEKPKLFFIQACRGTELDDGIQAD
Chain of Caspase-7 (Homo sapiens) (P55210 207-303 limits assumed): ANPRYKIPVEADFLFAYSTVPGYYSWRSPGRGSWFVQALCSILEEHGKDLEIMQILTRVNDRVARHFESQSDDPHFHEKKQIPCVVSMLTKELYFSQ

[38] = target: Alpha-1D adrenergic receptor (Homo sapiens) (UniProt P25100); details: Compound concentration 10.0 uM
[39] = target: Cathepsin Z (Homo sapiens) (UniProt Q9UBR2); assay: Cathepsin X (h) Eurofins-Cerep enzyme and uptake assay; details: Compound concentration 10.0 uM
[40] = target: Matrilysin (Homo sapiens) (UniProt P09237); assay: MMP-7 (h) Eurofins-Cerep enzyme and uptake assay; details: Compound concentration 10.0 uM
Chain of Matrilysin (Homo sapiens) (P09237 whole entry): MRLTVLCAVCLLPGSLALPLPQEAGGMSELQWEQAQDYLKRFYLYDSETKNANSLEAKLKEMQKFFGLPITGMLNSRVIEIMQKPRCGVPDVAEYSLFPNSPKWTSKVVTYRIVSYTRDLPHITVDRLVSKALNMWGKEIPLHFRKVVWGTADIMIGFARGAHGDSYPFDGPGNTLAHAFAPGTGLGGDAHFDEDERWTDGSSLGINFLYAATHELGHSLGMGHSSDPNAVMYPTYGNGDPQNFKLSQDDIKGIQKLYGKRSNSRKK

[41] = target: Histamine H3 receptor (Homo sapiens) (UniProt Q9Y5N1); details: Compound concentration 10.0 uM
[42] = target: T1, GABA-A receptor; anion channel (Rattus norvegicus) (UniProt O09028+P15431+P18506+P18508+P19969+P20236+P23574+P23576+P28471+P28473+P30191+P62813+P63079+P63138+Q91ZM7+Q9ES14); details: Compound concentration 10.0 uM
[43] = target: T1, GABA-A receptor; anion channel (Rattus norvegicus); details: Compound concentration 10.0 uM; remark: listed apart in the source
[44] = target: 5-hydroxytryptamine receptor 2C (Homo sapiens) (UniProt P28335); details: Compound concentration 10.0 uM
[45] = target: 5-hydroxytryptamine receptor 3A (Homo sapiens) (UniProt P46098); details: Compound concentration 10.0 uM

Chain of Beta-3 adrenergic receptor (P13945 whole entry): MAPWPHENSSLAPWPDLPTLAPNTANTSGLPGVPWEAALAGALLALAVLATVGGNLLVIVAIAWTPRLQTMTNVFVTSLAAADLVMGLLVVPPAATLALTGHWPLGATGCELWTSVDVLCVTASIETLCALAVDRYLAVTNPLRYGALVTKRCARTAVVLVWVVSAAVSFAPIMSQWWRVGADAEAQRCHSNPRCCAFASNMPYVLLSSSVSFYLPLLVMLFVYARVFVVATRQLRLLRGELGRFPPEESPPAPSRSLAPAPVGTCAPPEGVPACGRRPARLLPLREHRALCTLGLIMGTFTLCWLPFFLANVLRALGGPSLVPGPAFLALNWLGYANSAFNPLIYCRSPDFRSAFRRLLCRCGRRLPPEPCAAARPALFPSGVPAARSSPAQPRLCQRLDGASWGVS

`COc1ccc2c(O[C@@H]3C[C@H]4C(=O)N[C@]5(C(=O)O)CC5/C=C\CCCCC[C@H](NC(=O)OC5CCCC5)C(=O)N4C3)cc(-c3csc(NC(=O)C(C)C)n3)nc2c1C` (some centres undefined) [BI 1230] was tested, and the Ki [1] was 3.62 µM, the % Inhibition of Control Values [2] was 44.5% and the residual activity [3] was 80%. The % Inhibition of Control Values [4] was 2.6%, the % Inhibition of Control Values [5] was 3.5% and the % Inhibition of Control Values [6] was -23.1%. For the same compound, the % Inhibition of Control Values [7] was 9.7%, the inhibition [8] was 4.88% and the residual activity [9] was 89%. It also gave a % Inhibition of Control Values [10] of 281%, a % Inhibition of Control Values [11] of 16.1% and a % Inhibition of Control Values [12] of -16.8%. It also gave a % Inhibition of Control Values [13] of -8.1%, a % Inhibition of Control Values [14] of 54.8% and a % Inhibition of Control Values [15] of 28%. It also gave a % Inhibition of Control Values [16] of 29.8%, a % Inhibition of Control Values [17] of -2.2% and an inhibition [18] of 2.05%. For the same compound, the % Inhibition of Control Values [19] was -1.7%, the inhibition [20] was -6.16% and the % Inhibition of Control Values [21] was 63.7%. It also gave a % Inhibition of Control Values [22] of 14.3%, a Ki ([23]; read-out: Ki) of 3.29 µM and a Ki ([23]; read-out: pKi (converted)) of 3.24 µM. The % Inhibition of Control Values [24] was -54.7%, the % Inhibition of Control Values [25] was 73.8% and the % Inhibition of Control Values [26] was 125%. The Ki [27] was 4.49 µM, the % Inhibition of Control Values [28] was 4% and the % Inhibition of Control Values [29] was 21.2%. It also gave a % Inhibition of Control Agonist Response [30] of 59.6%, a % of Control Agonist Response [30] of -0.9% and a % Inhibition of Control Values [31] of 63%. The % Inhibition of Control Values [32] was 38.2%, the inhibition [33] was 3.15% and the % Inhibition of Control Values [34] was -6.2%. The % Inhibition of Control Values [35] was 13.6%, the % Inhibition of Control Values [36] was 59.2% and the % Inhibition of Control Values [37] was 40.6%. For the same compound, the inhibition [38] was 20.5%, the % Inhibition of Control Values [39] was 12.3% and the % Inhibition of Control Values [40] was 23.4%.
`O=C(N[C@H]1CCCCC/C=C\C2C[C@@]2(C(=O)O)NC(=O)[C@@H]2C[C@@H](Oc3ccncc3)CN2C1=O)OC1CCCC1` (some centres undefined) [BI 1675] showed a residual activity [3] of 97%, a residual activity [9] of 100% and an inhibition [41] of 2.64%. It also gave an inhibition [42] of 8.04%, an inhibition [43] of -5.88% and an inhibition [44] of 7.99%. The inhibition [45] was -8.48%.
